Experimental data from patent publication US8236827B2, “Compounds” (Spear Therapeutics Limited, priority 2009, dated 2012).

Experiments:
PDGFRβ = PDGFRβ (Homo sapiens, UniProt P09619); test: Cerep kinase screen; assay type: biochemical; settings: read-out: % Inhibition of Control
Protocol: (§1) Kinase screening was performed by Cerep Laboratories (Celle l′Evescault, France). Compounds were screened in duplicate at a single concentration (10 μM). The results, set forth in Table 4 below, are expressed as percent inhibition of control specific activity: {100−[(measured specific activity/control specific activity)×100]} obtained in the presence of Compound XI and Compound V. ATP concentrations correspond to the ATP Km value for each individual kinase (Cerep, private communication). In each experiment, a reference compound was tested concurrently with Compound XI and Compound V in order to assess the assay reliability. IC50 values for the reference compounds were within accepted limits (±0.5 log units) of the historic average.

FLT-1 = FLT-1 (Homo sapiens, UniProt P17948); test: Cerep kinase screen; assay type: biochemical; settings: read-out: % Inhibition of Control
Protocol: as §1

FLT-3 = FLT-3 (Homo sapiens, UniProt P36888); test: Cerep kinase screen; assay type: biochemical; settings: read-out: % Inhibition of Control
Protocol: as §1

FGFR2 = FGFR2 (Homo sapiens, UniProt P21802); test: Cerep kinase screen; assay type: biochemical; settings: read-out: % Inhibition of Control
Protocol: as §1

Fyn = Fyn (Homo sapiens, UniProt P06241); test: Cerep kinase screen; assay type: biochemical; settings: read-out: % Inhibition of Control
Protocol: as §1

CSK = CSK (Homo sapiens, UniProt P41240); test: Cerep kinase screen; assay type: biochemical; settings: read-out: % Inhibition of Control
Protocol: as §1

KDR (VEGFR2) = KDR (VEGFR2) (Homo sapiens, UniProt P35968); test: Cerep kinase screen; assay type: biochemical; settings: read-out: % Inhibition of Control
Protocol: as §1

Lyn = Lyn (Homo sapiens, UniProt P07948); test: Cerep kinase screen; assay type: biochemical; settings: read-out: % Inhibition of Control
Protocol: as §1

C-Met (HGFR) = C-Met (HGFR) (Homo sapiens, UniProt P08581); test: Cerep kinase screen; assay type: biochemical; settings: read-out: % Inhibition of Control
Protocol: as §1

FGFR4 = FGFR4 (Homo sapiens, UniProt P22455); test: Cerep kinase screen; assay type: biochemical; settings: read-out: % Inhibition of Control
Protocol: as §1

[1] = Cytotoxicity (MTS) in CHO/CYP1B1 cells; assay type: cell-based, Chinese Hamster; settings: Chinese hamster; text of b216; read-out: IC50, proliferation of CHO/CYP1B1 cells
Protocol: (§2) CHO/CYP1A1 and CHO/CYP1B1 cells: CHO cells containing recombinant CYP1A1 and recombinant CYP1B1 co-expressing P450 reductase, namely (CHO/CYP1A1) and (CHO/CYP1B1) respectively, were cultured using the standard culture medium for CHO cells supplemented with 0.4 mg/ml G418 disulfate salt and 0.3 μM methotrexate (Sigma/Aldrich Co., Gillingham, Dorset, UK) according to methods described in the literature (ibid.) Cells were grown at 37° C. in a humidified atmosphere plus 5% CO2.
(§3) A single cell suspension of CHO, CHO/CYP1A1 or CHO/CYP1B1 in 100 μl of the required cell culture medium was seeded onto 96-well plates at a cell density of 1500 cells per well and placed in an incubator for 24 h at 37° C. The stock solution of test compound in DMSO was then added to give a concentration range of 100, 30, 10, 3, 1, 0.3, 0.1, 0.03, 0.01, 0.003, 0.001, 0 μM. The final concentration of DMSO 0.2% was found not to affect the growth characteristics of the various CHO cell lines. The cells were incubated with the test compound for 96 h after which all the medium was aspirated and replaced with 100 μl of fresh medium to compensate for the loss of medium due to evaporation. The cells were incubated with 20 μl of the MTS assay reagent for 1.5 h and the absorbance per well at 510 nm measured using a plate reader. The mean absorbance and standard deviation for each test compound concentration was calculated versus a series of controls including (a) cells plus medium, (b) cell plus medium containing DMSO 0.2%, (c) medium alone, and (d) medium containing DMSO 0.2% and a range of test compound concentrations from 0 to 100 μM.
(§4) The MTS assay is a homogeneous, colorimetric method for determining the number of viable cells in proliferation, cytotoxicity or chemosensitivity assays (Cali J J, et al., “Luminescence-Based Methods and Probes for Measuring Cytochrome P450 Activity”, pp. 1-29. Promega Corporation, United States, 2004, the contents of which are incorporated herein by reference). The assay is composed of solutions of tetrazolium compound [3-(4,5-dimethylthiazol-2-yl)-5-(3-carboxymethoxyphenyl)-2-(4-sulfophenyl)-2H-tetrazolium, inner salt; MTS] and an electron coupling reagent (phenazine methosulfate) PMS. MTS is bioreduced by cells into a formazan product that is soluble in tissue culture medium. The absorbance of the formazan product at 510 nm can be directly measured from 96-well assay plates. The quantity of formazan product as measured by the amount of absorbance at 490 or 510 nm is directly proportional to the number of living cells in culture.

CHO/CYP1B1 cells = test: Cytotoxicity (MTS) in CHO/CYP1B1 cells; assay type: cell-based, Chinese Hamster
Protocol: as §2, §3, §4

wild-type CHO cells = test: Cytotoxicity (MTS) in wild-type CHO cells; assay type: cell-based, Chinese Hamster
Protocol: CHO cells: Chinese Hamster Ovary (CHO) DUKXB11 cells were grown under standard cell culture conditions in α-MEM supplemented with 10% FCS, 1 unit/ml each of hypoxanthine and thymidine, and penicillin (100 IU/ml) and streptomycin (100 μg/ml) according to literature methods (Ding S, et al., Arch. Biochem. Biophys., 348: 403-410, 1997, the contents of which are incorporated herein by reference). Cells were grown at 37° C. in a humidified atmosphere plus 5% CO2.
as §3, §4

CYP2D6 = CYP2D6 (Homo sapiens, UniProt P10635); test: CYP phenotyping, metabolic stability; assay type: in vitro ADME; settings: CYP2D6 (10 pm/mL); 1 μM; after 60 minutes
Protocol: (§5) Compounds V and II were exposed to a panel of six CYPs (see Table 5 below).
(§6) CYP metabolism studies were performed by Cerep Laboratories (Redmond, Wash., USA). Compounds were screened in duplicate at 1 μM in the presence of CYP enzyme, NADP (1.3 mM), D-Glucose-6-phosphate (3.3 mM) and Glucose-6-phosphate dehydrogenase. Following incubation at 0 and 60 minutes, parent compound levels were determined using standard HPLC/MS/MS procedures. The results are expressed as percent parent compound remaining after 60 minutes.

CYP3A4 = CYP3A4 (Homo sapiens, UniProt P08684); test: CYP phenotyping, metabolic stability; assay type: in vitro ADME; settings: CYP3A4 (10 pm/mL); 1 μM; after 60 minutes
Protocol: as §5, §6

CYP2C19 = CYP2C19 (Homo sapiens, UniProt P33261); test: CYP phenotyping, metabolic stability; assay type: in vitro ADME; settings: CYP2C19 (10 pm/mL); 1 μM; after 60 minutes
Protocol: as §5, §6

CYP2C9 = CYP2C9 (Homo sapiens, UniProt P11712); test: CYP phenotyping, metabolic stability; assay type: in vitro ADME; settings: CYP2C9 (10 pm/mL); 1 μM; after 60 minutes
Protocol: as §5, §6

CYP3A5 = CYP3A5 (Homo sapiens, UniProt P20815); test: CYP phenotyping, metabolic stability; assay type: in vitro ADME; settings: CYP3A5 (10 pm/mL); 1 μM; after 60 minutes
Protocol: (§7) As mentioned above, a feature of the compounds of the invention is their metabolism by CYP1B1 which is expressed at high frequency in a wide range of human cancers of different histogenetic types, but not in normal tissues. […] Compounds V and II were exposed to a panel of six CYPs (see Table 5 below).
as §6

CYP1A2 = molecular target: T1, CYP1A2 (Homo sapiens, UniProt P05177); test: CYP phenotyping, metabolic stability; assay type: in vitro ADME; settings: CYP1A2 (40 pm/mL)
T1 sequence (P05177 1-516): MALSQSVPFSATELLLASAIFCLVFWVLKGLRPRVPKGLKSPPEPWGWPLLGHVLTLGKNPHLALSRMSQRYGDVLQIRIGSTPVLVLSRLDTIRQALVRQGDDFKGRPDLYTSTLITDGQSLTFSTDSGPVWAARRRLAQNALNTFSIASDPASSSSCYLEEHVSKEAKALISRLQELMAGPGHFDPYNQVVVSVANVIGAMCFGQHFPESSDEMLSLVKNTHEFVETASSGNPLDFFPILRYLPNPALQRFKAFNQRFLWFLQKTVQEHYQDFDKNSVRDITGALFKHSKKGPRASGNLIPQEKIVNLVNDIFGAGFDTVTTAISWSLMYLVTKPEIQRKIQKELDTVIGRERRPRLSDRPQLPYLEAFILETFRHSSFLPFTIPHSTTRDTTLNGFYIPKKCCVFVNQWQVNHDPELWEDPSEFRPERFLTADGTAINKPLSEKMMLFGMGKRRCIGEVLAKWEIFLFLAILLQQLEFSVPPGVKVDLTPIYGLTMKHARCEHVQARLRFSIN
Protocol: as §7, §6

CHO/CYP1A1 cells = test: Cytotoxicity (MTS) in CHO/CYP1A1 cells; assay type: cell-based, Chinese Hamster
Protocol: as §2, §3, §4

[2] = Cytotoxicity (MTS) in CHO/CYP1A1 cells; assay type: cell-based, Chinese Hamster; settings: Chinese hamster; 96 h, MTS
Protocol: as §2, §3, §4

Chain of FLT-3 (P36888 27-993, species assumed): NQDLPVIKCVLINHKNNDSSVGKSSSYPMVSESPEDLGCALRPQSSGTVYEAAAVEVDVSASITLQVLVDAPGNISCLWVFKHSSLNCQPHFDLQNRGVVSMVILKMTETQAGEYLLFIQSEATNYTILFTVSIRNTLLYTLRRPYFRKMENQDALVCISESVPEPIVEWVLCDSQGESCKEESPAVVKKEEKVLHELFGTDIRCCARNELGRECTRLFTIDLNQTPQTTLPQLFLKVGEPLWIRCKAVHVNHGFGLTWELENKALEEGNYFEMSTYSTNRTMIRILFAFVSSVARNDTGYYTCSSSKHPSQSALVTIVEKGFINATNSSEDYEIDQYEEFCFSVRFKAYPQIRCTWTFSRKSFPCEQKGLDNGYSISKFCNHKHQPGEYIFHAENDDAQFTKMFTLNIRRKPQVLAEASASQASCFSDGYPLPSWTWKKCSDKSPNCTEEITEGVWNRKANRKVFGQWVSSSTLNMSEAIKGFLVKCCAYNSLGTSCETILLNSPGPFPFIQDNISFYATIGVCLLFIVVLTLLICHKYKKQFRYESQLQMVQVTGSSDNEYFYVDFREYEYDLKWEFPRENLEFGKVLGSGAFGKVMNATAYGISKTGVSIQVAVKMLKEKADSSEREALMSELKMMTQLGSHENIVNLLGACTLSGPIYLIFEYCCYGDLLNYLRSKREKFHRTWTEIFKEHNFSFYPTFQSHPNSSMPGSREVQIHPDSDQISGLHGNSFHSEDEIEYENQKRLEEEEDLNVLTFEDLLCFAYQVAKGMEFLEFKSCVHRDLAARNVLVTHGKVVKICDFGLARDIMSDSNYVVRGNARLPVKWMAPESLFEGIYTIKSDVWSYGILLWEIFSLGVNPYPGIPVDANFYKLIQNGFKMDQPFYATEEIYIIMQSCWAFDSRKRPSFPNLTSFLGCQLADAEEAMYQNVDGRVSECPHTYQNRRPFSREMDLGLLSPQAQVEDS
Chain of FLT-1 (P17948 27-1338, species assumed): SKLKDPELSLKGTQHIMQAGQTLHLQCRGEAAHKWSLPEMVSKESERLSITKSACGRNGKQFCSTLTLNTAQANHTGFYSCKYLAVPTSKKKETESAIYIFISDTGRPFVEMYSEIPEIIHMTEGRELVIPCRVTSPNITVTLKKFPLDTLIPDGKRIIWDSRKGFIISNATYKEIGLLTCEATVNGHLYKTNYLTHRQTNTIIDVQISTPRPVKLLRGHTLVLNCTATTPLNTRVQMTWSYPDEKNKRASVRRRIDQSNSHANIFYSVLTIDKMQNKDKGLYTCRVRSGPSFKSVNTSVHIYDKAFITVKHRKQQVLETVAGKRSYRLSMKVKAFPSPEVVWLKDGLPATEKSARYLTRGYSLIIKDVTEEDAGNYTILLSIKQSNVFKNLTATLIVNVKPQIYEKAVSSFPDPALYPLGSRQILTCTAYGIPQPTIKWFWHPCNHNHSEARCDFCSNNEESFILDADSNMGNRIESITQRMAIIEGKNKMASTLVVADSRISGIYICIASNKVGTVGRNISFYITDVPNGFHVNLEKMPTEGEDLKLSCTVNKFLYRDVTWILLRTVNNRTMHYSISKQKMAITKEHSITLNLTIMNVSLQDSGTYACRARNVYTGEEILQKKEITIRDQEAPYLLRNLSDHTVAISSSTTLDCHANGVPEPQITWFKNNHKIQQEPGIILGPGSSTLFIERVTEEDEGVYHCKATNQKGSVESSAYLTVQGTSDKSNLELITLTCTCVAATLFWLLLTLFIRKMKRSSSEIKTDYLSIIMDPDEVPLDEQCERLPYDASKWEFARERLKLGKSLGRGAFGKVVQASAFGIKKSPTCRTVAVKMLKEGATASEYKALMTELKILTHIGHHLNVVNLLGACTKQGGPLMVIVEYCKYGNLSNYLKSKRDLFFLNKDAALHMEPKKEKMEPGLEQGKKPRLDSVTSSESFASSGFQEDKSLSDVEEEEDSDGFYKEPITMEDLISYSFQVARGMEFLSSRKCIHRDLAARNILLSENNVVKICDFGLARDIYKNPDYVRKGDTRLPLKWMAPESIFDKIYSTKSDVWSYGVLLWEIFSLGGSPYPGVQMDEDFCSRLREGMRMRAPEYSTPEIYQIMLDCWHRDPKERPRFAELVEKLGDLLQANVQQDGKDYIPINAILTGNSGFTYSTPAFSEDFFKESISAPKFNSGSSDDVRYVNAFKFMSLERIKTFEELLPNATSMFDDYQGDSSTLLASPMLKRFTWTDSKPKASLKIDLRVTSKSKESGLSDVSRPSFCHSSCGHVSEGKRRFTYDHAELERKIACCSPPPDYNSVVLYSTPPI
Chain of Lyn (P07948 whole entry, species assumed): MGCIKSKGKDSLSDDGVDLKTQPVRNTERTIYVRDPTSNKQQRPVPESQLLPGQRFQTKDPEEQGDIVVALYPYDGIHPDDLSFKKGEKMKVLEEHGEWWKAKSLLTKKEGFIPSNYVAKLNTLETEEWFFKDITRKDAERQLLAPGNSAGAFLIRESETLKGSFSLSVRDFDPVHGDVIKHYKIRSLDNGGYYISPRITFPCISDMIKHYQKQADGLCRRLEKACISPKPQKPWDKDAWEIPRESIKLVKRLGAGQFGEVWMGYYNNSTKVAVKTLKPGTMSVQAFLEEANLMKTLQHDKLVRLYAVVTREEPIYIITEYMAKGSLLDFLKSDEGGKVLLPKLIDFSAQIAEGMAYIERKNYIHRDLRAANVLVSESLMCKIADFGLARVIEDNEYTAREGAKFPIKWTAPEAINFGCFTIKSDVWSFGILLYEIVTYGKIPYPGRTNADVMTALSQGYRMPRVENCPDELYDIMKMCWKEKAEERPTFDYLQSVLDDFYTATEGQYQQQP
Chain of C-Met (HGFR) (P08581 25-1390): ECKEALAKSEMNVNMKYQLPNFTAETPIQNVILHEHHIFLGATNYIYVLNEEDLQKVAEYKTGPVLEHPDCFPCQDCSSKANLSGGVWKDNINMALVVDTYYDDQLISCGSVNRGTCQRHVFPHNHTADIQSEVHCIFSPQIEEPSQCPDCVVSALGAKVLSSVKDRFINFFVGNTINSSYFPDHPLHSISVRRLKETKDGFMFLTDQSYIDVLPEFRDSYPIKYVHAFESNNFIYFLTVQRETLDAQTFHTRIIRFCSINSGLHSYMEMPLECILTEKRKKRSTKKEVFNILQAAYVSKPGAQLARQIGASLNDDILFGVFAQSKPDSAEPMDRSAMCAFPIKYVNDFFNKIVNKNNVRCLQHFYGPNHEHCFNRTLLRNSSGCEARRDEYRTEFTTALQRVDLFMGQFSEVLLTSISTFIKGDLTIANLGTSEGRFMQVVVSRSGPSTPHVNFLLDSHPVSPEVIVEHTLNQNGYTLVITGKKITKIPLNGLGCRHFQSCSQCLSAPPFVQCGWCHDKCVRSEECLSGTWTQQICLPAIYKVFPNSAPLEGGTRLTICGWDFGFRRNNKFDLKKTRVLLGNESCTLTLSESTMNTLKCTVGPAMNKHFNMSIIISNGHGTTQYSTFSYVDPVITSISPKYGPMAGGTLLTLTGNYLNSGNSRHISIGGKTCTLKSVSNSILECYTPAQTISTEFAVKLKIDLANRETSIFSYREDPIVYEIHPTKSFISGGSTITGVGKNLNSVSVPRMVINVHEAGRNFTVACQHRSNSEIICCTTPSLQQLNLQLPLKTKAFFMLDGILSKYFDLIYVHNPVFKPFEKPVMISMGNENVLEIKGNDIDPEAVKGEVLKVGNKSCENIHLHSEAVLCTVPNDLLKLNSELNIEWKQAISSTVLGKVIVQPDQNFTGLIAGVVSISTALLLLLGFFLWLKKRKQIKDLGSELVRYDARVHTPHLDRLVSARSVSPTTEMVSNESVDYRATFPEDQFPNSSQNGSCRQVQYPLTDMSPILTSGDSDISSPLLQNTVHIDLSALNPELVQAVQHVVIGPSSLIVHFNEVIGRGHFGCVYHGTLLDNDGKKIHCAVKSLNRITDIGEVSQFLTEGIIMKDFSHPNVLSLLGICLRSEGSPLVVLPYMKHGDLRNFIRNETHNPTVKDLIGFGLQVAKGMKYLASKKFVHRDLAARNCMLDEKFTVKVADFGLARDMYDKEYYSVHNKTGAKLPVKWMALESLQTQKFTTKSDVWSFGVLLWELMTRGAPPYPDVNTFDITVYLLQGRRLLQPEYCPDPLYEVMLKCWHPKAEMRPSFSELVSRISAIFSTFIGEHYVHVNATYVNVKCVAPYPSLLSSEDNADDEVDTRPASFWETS
Chain of FGFR2 (P21802 22-821, species assumed): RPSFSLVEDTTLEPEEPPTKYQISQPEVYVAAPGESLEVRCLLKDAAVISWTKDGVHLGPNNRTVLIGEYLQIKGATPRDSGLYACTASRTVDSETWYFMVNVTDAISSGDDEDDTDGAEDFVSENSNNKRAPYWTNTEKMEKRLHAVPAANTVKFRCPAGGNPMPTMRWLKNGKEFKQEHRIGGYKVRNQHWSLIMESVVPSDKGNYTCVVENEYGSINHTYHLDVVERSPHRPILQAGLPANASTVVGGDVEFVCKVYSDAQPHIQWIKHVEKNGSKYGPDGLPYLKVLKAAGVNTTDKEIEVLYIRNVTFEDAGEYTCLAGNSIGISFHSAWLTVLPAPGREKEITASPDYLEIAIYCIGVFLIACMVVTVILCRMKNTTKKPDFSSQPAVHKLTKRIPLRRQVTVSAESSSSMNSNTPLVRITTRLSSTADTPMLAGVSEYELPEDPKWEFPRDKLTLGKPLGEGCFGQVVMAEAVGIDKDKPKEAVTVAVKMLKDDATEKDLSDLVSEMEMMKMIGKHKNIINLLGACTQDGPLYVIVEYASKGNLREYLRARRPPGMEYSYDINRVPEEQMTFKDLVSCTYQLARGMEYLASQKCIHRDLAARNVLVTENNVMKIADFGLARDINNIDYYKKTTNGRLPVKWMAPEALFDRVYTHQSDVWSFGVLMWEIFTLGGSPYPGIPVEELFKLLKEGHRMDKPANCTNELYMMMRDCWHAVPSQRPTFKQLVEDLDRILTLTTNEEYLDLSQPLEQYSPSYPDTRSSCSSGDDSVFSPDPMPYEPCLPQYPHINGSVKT

Compound	inhibition at 10 µM (PDGFRβ) [%]	inhibition at 10 µM (FLT-1) [%]	inhibition at 10 µM (FLT-3) [%]	inhibition at 10 µM (FGFR2) [%]	inhibition at 10 µM (Fyn) [%]	inhibition at 10 µM (CSK) [%]	inhibition at 10 µM (KDR (VEGFR2)) [%]	inhibition at 10 µM (Lyn) [%]	inhibition at 10 µM (C-Met (HGFR)) [%]	inhibition at 10 µM (FGFR4) [%]	also measured
COc1ccc(-c2cc(-c3ccc(O)c(O)c3)cc(=O)[nH]2)cc1OC [Compound XI]	91	98	93	98	100	98	96	99	58	85	–
COc1ccc(-c2cc(-c3ccc4c(c3)OCO4)cc(=O)[nH]2)cc1OC [Compound V]	7	11	21	13	25	4	19	-1	-5	-3	IC50 at 96 h [1]: 0.08 µM; activity against CHO/CYP1B1 cells (in words) (CHO/CYP1B1 cells): strongly inhibit proliferation; toxicity to wild-type CHO cells (in words) (wild-type CHO cells): non toxic; IC50 (wild-type CHO cells; Cricetulus griseus, CHO, 96 h, MTS): > 100 µM; Mean Parent Remaining (%) (CYP2D6): 100%; Mean Parent Remaining (%) (CYP3A4): 93%; Mean Parent Remaining (%) (CYP2C19): 111%; Mean Parent Remaining (%) (CYP2C9): 109%; Mean Parent Remaining (%) (CYP3A5): 87%; Mean Parent Remaining (%) (CYP1A2; 1 μM, after 60 minutes): 71%; toxicity / activity in CYP1A1 expressing CHO cells (in words) (CHO/CYP1A1 cells): non toxic; IC50 at 96 h [2]: > 100 µM
CCOc1ccc2nc3ccc(=O)cc-3oc2c1 [Ethoxy-resorufin, 7-ethoxyresorufin, reference compound]	–	–	–	–	–	–	–	–	–	–	% Reference Compound Remaining (CYP1A2; reference compound): 0%
